Assay results from patent US11878063B2, “Engineered ligands and uses thereof” (Children's Medical Center Corporation, priority 2019, dated 2024).
Entries after “also recorded” stand apart in the source; their conditions may differ. Square brackets hold non-standard residues; d marks the D form. Peptide text beside a SMILES is read from it. Aib = CC(C)(N)C(=O)O

Key:
PTHR2 [1] = biological target: T1, PTHR2 (Homo sapiens, UniProt P49190); experiment: cAMP induction in HEK293 cells stably expressing human PTHR2; type: cell-based; settings: at 100 uM
T1 construct: expressed in transfected cells
Protocol: (§1) Measurement of cAMP response. These assays were performed as previously described^27. […] Confluent monolayers of cells were pre-incubated with CO2 independent medium containing D-luciferin (0.5 mM) at 37° C. until a stable baseline level of luminescence was established (20 min). Varying concentrations of ligands were then added, and the time course of luminescence response was recorded using BioTek plate reader.
(§2) Data calculations. Data were processed using Microsoft Excel and GraphPad Prism 6. Data from cAMP dose-response assays were analyzed using a sigmoidal dose-response model with variable slope. Data sets were statistically compared by using Student's t test (two-tailed) assuming unequal variances for the two sets.

rat PTHR1 [2] = biological target: T2, rat PTHR1 (Rattus norvegicus, UniProt P25961); experiment: cAMP induction in HEK293 cells stably expressing rat PTHR1; type: cell-based
T2 construct: expressed in transfected cells
T2 sequence (P25961 27-591): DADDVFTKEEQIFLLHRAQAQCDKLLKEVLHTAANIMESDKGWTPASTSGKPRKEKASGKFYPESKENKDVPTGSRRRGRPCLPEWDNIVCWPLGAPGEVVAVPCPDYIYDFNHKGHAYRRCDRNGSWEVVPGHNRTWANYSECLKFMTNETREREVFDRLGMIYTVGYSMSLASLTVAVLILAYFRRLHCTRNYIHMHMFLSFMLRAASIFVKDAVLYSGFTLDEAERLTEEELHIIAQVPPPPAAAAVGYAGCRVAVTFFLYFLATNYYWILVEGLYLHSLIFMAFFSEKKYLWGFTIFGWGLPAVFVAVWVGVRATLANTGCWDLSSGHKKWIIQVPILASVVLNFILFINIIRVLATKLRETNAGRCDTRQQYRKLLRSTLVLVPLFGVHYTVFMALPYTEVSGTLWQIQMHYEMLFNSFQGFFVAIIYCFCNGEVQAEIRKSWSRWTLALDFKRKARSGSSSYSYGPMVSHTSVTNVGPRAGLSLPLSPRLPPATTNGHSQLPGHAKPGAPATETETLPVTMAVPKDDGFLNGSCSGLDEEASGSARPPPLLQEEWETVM
Protocol: as §1, §2

PTHR16E = biological target: T3, PTHR16E (Homo sapiens, UniProt Q03431, A83I/D81R/G76A/K80A/K82Q/P78E/R79L/S71Q/S73D/S75E/T74Q); experiment: cAMP induction in HEK293 cells stably expressing PTHR16E (6E/Ubc6e epitope tag in exon 2 segment); type: cell-based
T3 construct: expressed in transfected cells
T3 sequence (Q03431 27-593 S71Q/S73D/T74Q/S75E/G76A/P78E/R79L/K80A/D81R/K82Q/A83I): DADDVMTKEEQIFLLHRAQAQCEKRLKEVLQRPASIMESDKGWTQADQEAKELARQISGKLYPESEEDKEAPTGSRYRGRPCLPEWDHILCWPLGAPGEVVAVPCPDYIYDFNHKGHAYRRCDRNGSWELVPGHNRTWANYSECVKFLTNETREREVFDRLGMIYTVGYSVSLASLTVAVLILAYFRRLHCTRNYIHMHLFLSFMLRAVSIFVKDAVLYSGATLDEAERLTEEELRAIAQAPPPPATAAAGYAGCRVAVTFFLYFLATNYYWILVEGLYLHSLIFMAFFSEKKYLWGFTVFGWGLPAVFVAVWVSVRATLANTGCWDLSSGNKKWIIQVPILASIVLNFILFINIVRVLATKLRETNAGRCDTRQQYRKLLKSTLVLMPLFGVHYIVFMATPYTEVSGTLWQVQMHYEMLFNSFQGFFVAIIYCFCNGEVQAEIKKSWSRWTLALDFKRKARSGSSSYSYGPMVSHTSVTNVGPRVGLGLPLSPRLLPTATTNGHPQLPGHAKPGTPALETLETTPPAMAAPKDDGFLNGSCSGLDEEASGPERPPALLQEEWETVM
Protocol: Measurement of cAMP response. These assays were performed as previously described^27. Briefly, HEK-293-derived cell lines that stably express the Glosensor cAMP reporter (Promega Corp.)^30 and PTHR1, a PTHR1 variant, or PTHR2 were seeded into white sided 96 well plates (50,000 cells/well) and grown to confluency. Confluent monolayers of cells were pre-incubated with CO2 independent medium containing D-luciferin (0.5 mM) at 37° C. until a stable baseline level of luminescence was established (20 min). Varying concentrations of ligands were then added, and the time course of luminescence response was recorded using BioTek plate reader.
as §2
The portion of PTHR1 encoded by exon 2 is not resolved in structural studies (FIG. 12—Panel d)^13, 14, 17, is not important for ligand binding^18, and in past work has been targeted as a site for receptor modification^18, 19. A construct was generated that encodes a PTHR1 variant in which a 14-residue fragment from exon 2 was replaced with a 14-mer epitope tag from the intracellular protein UBC6e (PTHR16E, FIG. 12—Panel d)^20. A receptor construct in which a pH-sensitive green fluorescent protein variant (GFP) was inserted into the portion of the receptor encoded by exon 2 (PTHR1GFP in FIGS. 17A to 17C)^19. Another version of PTHR1 in which yellow fluorescent protein (YFP) replaces the entire extracellular domain (PTHR1YFPΔECD, FIG. 12—Panel e)^21, was also used.

human PTHR1 = biological target: T4, human PTHR1 (Homo sapiens, UniProt Q03431); experiment: cAMP induction (cAMP-responsive luciferase) in HEK293 cells stably expressing human PTHR1; type: cell-based
T4 construct: expressed in transfected cells
T4 sequence (Q03431 27-593): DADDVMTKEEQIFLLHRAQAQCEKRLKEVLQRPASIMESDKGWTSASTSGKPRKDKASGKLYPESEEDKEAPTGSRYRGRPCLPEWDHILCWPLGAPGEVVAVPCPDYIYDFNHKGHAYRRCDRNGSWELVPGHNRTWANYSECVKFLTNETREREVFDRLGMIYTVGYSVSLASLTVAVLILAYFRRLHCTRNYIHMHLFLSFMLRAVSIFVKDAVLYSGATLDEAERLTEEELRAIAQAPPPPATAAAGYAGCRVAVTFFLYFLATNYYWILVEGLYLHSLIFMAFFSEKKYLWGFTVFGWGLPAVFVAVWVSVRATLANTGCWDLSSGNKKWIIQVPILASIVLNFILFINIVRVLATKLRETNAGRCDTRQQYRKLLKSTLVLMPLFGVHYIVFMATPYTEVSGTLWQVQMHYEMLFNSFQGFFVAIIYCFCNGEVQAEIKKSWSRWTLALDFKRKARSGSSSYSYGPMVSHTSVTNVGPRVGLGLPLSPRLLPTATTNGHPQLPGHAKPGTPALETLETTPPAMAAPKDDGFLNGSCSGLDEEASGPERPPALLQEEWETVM
Protocol: as §1, §2

PTHR1GFP = experiment: Flow cytometry staining by VHH-Alexafluor647 of HEK293 cells expressing PTHR1GFP; type: binding, human; settings: 100 nM VHH
Protocol: FIGS. 17A-17C: Use of PTHR1-GFP. (FIG. 17A) Hypothetical structure of PTHR1 with GFP engrafted into exon 2 bound to a GFP binding nanobody. (FIG. 17B) Flow cytometry analysis of cells stably expressing PTHR1-GFP. HEK293 cell lines in suspension were incubated on ice with 100 nM VHH sortagged with Alexafluor647, pelleted by centrifugation, washed and analyzed. […] This weak staining is likely related to the inability of VHHGFP to tightly bind the pH-sensitive GFP variant known as pHluorin2 engrafted into the receptor (ref. 19, main text). (FIG. 17C) HEK293 cells stably expressing PTHR1-GFP were treated with varied doses of the indicated peptides or conjugates and activation was assessed by measuring luminescence from a cAMP-activated luciferase variant. Values listed represent EC50 values (mean±SD). Each value comes from ≥3 independent experiments. Further details, including the number of replicates for each measurement and the normalized maximal responses induced, are reported in Table 5.
Flow cytometry. Suspensions of cells in PBS were stained for 1 hour on ice in the presence of indicated concentrations of VHH probes functionalized with Alexafluor647. Cells were pelleted by centrifugation and washed with PBS prior to analysis by flow cytometry (BD Accuri C6). Gating was performed on forward scatter/side scatter profiles to analyze intact cells. Data was analyzed using FlowJo version 7.6. […]

PTHR1YFPΔECD = experiment: Flow cytometry staining by VHH-Alexafluor647 of HEK293 cells expressing PTHR1YFPΔECD; type: binding, human
Protocol: (§3) Flow cytometry. Suspensions of cells in PBS were stained for 1 hour on ice in the presence of indicated concentrations of VHH probes functionalized with Alexafluor647. Cells were pelleted by centrifugation and washed with PBS prior to analysis by flow cytometry (BD Accuri C6). Gating was performed on forward scatter/side scatter profiles to analyze intact cells. Data was analyzed using FlowJo version 7.6. The median fluorescent intensity (MFI) of stained cells was used to generate VHH binding dose response curves (FIG. 20).

PTHR2 [3] = biological target: T1, PTHR2; experiment: Flow cytometry staining by VHH-Alexafluor647 of HEK293 cells expressing PTHR2; type: binding; settings: 100 nM VHH; listed as VHH22A3
Protocol: as §3

PTHR1 = experiment: Flow cytometry staining by VHH-Alexafluor647 of HEK293 cells expressing PTHR1 constructs that retain the ECD; type: binding, human; settings: 100 nM VHH
Protocol: as §3

rat PTHR1 [4] = biological target: T2, rat PTHR1; experiment: Flow cytometry staining by VHH-Alexafluor647 of HEK293 cells expressing rat PTHR1; type: binding; settings: 100 nM VHH
Protocol: as §3

T1 sequence (P49190 25-550): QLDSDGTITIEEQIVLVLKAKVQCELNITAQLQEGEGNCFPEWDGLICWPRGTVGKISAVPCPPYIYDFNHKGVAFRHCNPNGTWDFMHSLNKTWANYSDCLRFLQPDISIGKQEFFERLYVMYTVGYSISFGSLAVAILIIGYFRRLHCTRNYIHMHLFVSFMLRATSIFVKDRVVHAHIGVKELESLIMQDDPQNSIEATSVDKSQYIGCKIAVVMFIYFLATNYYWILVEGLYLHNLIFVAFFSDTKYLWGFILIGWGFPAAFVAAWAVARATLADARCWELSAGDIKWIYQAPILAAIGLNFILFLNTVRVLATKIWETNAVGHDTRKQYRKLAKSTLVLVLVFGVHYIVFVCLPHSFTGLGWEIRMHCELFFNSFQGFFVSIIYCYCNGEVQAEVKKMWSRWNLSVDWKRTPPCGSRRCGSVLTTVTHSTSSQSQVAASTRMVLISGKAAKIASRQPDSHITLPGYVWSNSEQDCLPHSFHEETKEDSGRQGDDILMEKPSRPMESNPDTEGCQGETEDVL

CC[C@H](C)[C@H](NC(=O)[C@H](CCC(=O)O)NC(=O)C(C)(C)NC(=O)[C@@H](NC(=O)[C@H](C)N)C(C)C)C(=O)N[C@@H](CCC(N)=O)C(=O)N[C@@H](CC(C)C)C(=O)N[C@@H](CCSC)C(=O)N[C@@H](Cc1c[nH]cn1)C(=O)N[C@@H](CCC(N)=O)C(=O)N[C@@H](CCCNC(=N)N)C(=O)N[C@@H](CS)C(N)=O [PTH(1-11)] (H-AV[Aib]EIQLMHQRC-NH2)
response at 100 uM, hPTHR2 (PTHR2 [1]): 20% | EC50 (rat PTHR1 [2]): 120 ± 90.3 nM | EC50 (PTHR16E): 94 ± 74 nM | EC50 (human PTHR1): 516 ± 238 nM

VHHGFP: nanobody that binds GFP and YFP, SEQ ID NO: 73
staining of PTHR1GFP cells (in words) (PTHR1GFP): only weakly stained | staining of PTHR1YFPΔECD cells (in words) (PTHR1YFPΔECD; 100 nM VHH): stained | EC50 (PTHR1YFPΔECD; flow cytometry, on ice, read-out: half-maximal staining concentration, PTHR1YFP-del-NT cells): < 10 nM

B1: VHHPTHR: nanobody that recognizes the PTHR1 extracellular domain, SEQ ID NO: 74, from US 2010/0062004 (protein)
VHH: EVQLVESGGGLVQAGGSLRLSCAASGNIFANNIMGWYRQPPGKEREFVAHVSHDGDSMYAVSVKGRFAISRKDATNLYLQMNSLKPEDTAIYFCRLLNIPTQGRMEGFWGQGTQVTVSS
binding to PTHR2 (in words) (PTHR2 [3]): lack of binding | binding to PTHR1 constructs retaining the ECD (in words) (PTHR1): bound all constructs that retained the PTHR1 ECD; also recorded: binds to PTHR1 | binding to rat PTHR1 (in words) (rat PTHR1 [4]): bound
